Reference: PubChem BioAssay AID256 (DTP/NCI, 2004)
Where “and” joins values, the source holds several entries; their conditions need not be identical. Identical values can stand only once. Toxic doses and inconclusive results are not listed. The calls were made as follows: active = survival T/C of 150% or more; inactive = T/C below 125% in these data.

Test system: CD2F1 mice, L1210 leukemia ip, survival T/C
Assay: NCI In Vivo Anticancer Drug Screen. Data for tumor model L1210 Leukemia (intraperitoneal) in CD2F1 (CDF1) mice
Settings: higher = longer survival
Method in brief: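 Ratio T/C, where T is the treated-group value and C the vehicle-dosed control value, from mice implanted with a transplantable tumor.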

[1] = endpoint: mean survival time, dose: 25.0 mg/kg/injection, schedule: Q04DX003 (ip), vehicle: saline
[2] = endpoint: mean survival time, dose: 100.0 mg/kg/injection, schedule: Q04DX003 (ip), vehicle: saline with Tween-80
[3] = endpoint: mean survival time, dose: 100.0 mg/kg/injection, schedule: Q04DX003 (ip), vehicle: saline
[4] = endpoint: mean survival time, dose: 200.0 mg/kg/injection, schedule: Q04DX003 (ip), vehicle: saline with Tween-80
[5] = endpoint: mean survival time, dose: 400.0 mg/kg/injection, schedule: Q04DX003 (ip), vehicle: saline with Tween-80
[6] = endpoint: mean survival time, dose: 75.0 mg/kg/injection, schedule: Q01DX001 (ip), vehicle: other
[7] = endpoint: mean survival time, dose: 150.0 mg/kg/injection, schedule: Q01DX001 (ip), vehicle: other
[8] = endpoint: mean survival time, dose: 300.0 mg/kg/injection, schedule: Q01DX001 (ip), vehicle: other
[9] = endpoint: mean survival time, dose: 100.0 mg/kg/injection, schedule: Q04DX002 (ip), vehicle: saline with Tween-80
[10] = endpoint: mean survival time, dose: 100.0 mg/kg/injection, schedule: Q01DX009 (ip), vehicle: saline with Tween-80
[11] = endpoint: mean survival time, dose: 200.0 mg/kg/injection, schedule: Q01DX009 (ip), vehicle: saline with Tween-80
[12] = endpoint: mean survival time, dose: 400.0 mg/kg/injection, schedule: Q01DX009 (ip), vehicle: saline with Tween-80
[13] = endpoint: mean survival time, dose: 75.0 mg/kg/injection, schedule: Q01DX001 (ip), vehicle: saline
[14] = endpoint: mean survival time, dose: 150.0 mg/kg/injection, schedule: Q01DX001 (ip), vehicle: saline
[15] = endpoint: mean survival time, dose: 50.0 mg/kg/injection, schedule: Q01DX009 (ip), vehicle: saline with Tween-80

Measured: T/C

CC(O)C(=O)[O][Hg][c]1ccccc1 (stereo unspecified)
inactive: endpoint: mean survival time, dose: 10.0 mg/kg/injection, schedule: Q04DX003 (ip), vehicle: saline with Tween-80 92 % of control

COC(=O)C1(N)CCCC1
inactive: [1] 101 % of control | endpoint: mean survival time, dose: 50.0 mg/kg/injection, schedule: Q04DX003 (ip), vehicle: saline 100 % of control | [2] 105 % of control | [3] 113 % of control | endpoint: mean survival time, dose: 200.0 mg/kg/injection, schedule: Q01DX009 (ip), vehicle: saline 121 % of control | [4] 122 % of control

Cn1c(=O)cc(C(=O)NCCCN2CCOCC2)c2ccccc21
inactive: [2] 92 % of control | [4] 96 % of control | [5] 87 % of control

CC(C)(C)c1ccc(S(=O)(=O)CC(=O)O)cc1
inactive: [6] 104 % of control | [2] 104 % of control | [7] 100 % of control | [4] 102 % of control | [8] 98 % of control | [5] 104 % of control

N#CC1C2CCC(O2)C1C(=O)Oc1ccccc1 (stereo unspecified)
inactive: endpoint: mean survival time, dose: 25.0 mg/kg/injection, schedule: Q04DX002 (ip), vehicle: saline with Tween-80 103 % of control | endpoint: mean survival time, dose: 50.0 mg/kg/injection, schedule: Q04DX002 (ip), vehicle: saline with Tween-80 95 % of control | [9] 97 % of control and 110 % of control

CC1=C2CC3C(CC2(C)C(=O)C=C1)OC(=O)C3C (stereo unspecified)
inactive: [2] 93 % of control | [4] 89 % of control | [5] 98 % of control

NCCC(O)C(=O)NC1CC(N)C(OC2OC(CN)C(O)C(O)C2O)C(O)C1OC1OC(CO)C(O)C(N)C1O (stereo unspecified)
inactive: endpoint: mean survival time, dose: 10.0 mg/kg/injection, schedule: Q04DX003 (ip), vehicle: saline 95 % of control | endpoint: mean survival time, dose: 20.0 mg/kg/injection, schedule: Q04DX003 (ip), vehicle: saline 90 % of control | endpoint: mean survival time, dose: 40.0 mg/kg/injection, schedule: Q04DX003 (ip), vehicle: saline 93 % of control

O=C1NC2C=CC3C=CC=CC2C13 (stereo unspecified)
inactive: endpoint: median survival time, dose: 25.0 mg/kg/injection, schedule: Q04DX002 (ip), vehicle: saline with Tween-80 100 % of control | endpoint: median survival time, dose: 50.0 mg/kg/injection, schedule: Q04DX002 (ip), vehicle: saline with Tween-80 100 % of control | endpoint: median survival time, dose: 100.0 mg/kg/injection, schedule: Q04DX002 (ip), vehicle: saline with Tween-80 100 % of control | endpoint: median survival time, dose: 200.0 mg/kg/injection, schedule: Q04DX002 (ip), vehicle: saline with Tween-80 100 % of control

N#CCCN(CC(O)c1cc2ccccc2c2ccccc12)C1CCCCC1 (stereo unspecified)
inactive: endpoint: mean survival time, dose: 100.0 mg/kg/injection, schedule: Q01DX001 (ip), vehicle: saline with Tween-80 91 % of control | [10] 106 % of control | endpoint: mean survival time, dose: 200.0 mg/kg/injection, schedule: Q01DX001 (ip), vehicle: saline with Tween-80 90 % of control | [11] 97 % of control | endpoint: mean survival time, dose: 400.0 mg/kg/injection, schedule: Q01DX001 (ip), vehicle: saline with Tween-80 92 % of control | [12] 97 % of control

CCOC(=O)NCC[N+](C)(C)C
inactive: endpoint: mean survival time, dose: 6.25 mg/kg/injection, schedule: Q04DX003 (ip), vehicle: saline 100 % of control | endpoint: mean survival time, dose: 12.5 mg/kg/injection, schedule: Q04DX003 (ip), vehicle: saline 102 % of control | [1] 105 % of control

CSCS(=O)C[C@H](CO)NC(=O)/C=C/c1c(C)[nH]c(=O)[nH]c1=O (stereo partly specified)
inactive: endpoint: mean survival time, dose: 0.03 mg/kg/injection, schedule: Q01DX009 (ip), vehicle: saline 104 % of control | endpoint: mean survival time, dose: 0.06 mg/kg/injection, schedule: Q01DX009 (ip), vehicle: saline 103 % of control | endpoint: mean survival time, dose: 0.08 mg/kg/injection, schedule: Q01DX009 (ip), vehicle: water 105 % of control and 110 % of control | endpoint: mean survival time, dose: 0.13 mg/kg/injection, schedule: Q01DX009 (ip), vehicle: saline 101 % of control | endpoint: mean survival time, dose: 0.13 mg/kg/injection, schedule: Q01DX010 (ip), vehicle: saline 102 % of control and 111 % of control | endpoint: mean survival time, dose: 0.15 mg/kg/injection, schedule: Q01DX009 (ip), vehicle: water 115 % of control and 110 % of control | endpoint: mean survival time, dose: 0.25 mg/kg/injection, schedule: Q01DX009 (ip), vehicle: saline 115 % of control | endpoint: mean survival time, dose: 0.25 mg/kg/injection, schedule: Q01DX010 (ip), vehicle: saline 113 % of control and 114 % of control | endpoint: mean survival time, dose: 0.3 mg/kg/injection, schedule: Q01DX009 (ip), vehicle: water 116 % of control | endpoint: mean survival time, dose: 0.5 mg/kg/injection, schedule: Q01DX009 (ip), vehicle: saline 114 % of control | endpoint: mean survival time, dose: 0.5 mg/kg/injection, schedule: Q01DX010 (ip), vehicle: saline 119 % of control and 112 % of control | endpoint: mean survival time, dose: 0.6 mg/kg/injection, schedule: Q01DX009 (ip), vehicle: water 101 % of control | endpoint: mean survival time, dose: 1.0 mg/kg/injection, schedule: Q01DX010 (ip), vehicle: saline 108 % of control

COc1ccc(C2C3C=CC(C3)C2C(=O)O)cc1 (stereo unspecified)
inactive: [10] 96 % of control | [2] 106 % of control | [11] 96 % of control | [4] 103 % of control | [12] 103 % of control | [5] 95 % of control

CC(C)(CNC1CCCCC1)OC(=O)c1ccc([N+](=O)[O-])cc1
inactive: [13] 94 % of control | [14] 99 % of control | endpoint: mean survival time, dose: 300.0 mg/kg/injection, schedule: Q01DX001 (ip), vehicle: saline 94 % of control

COc1c2c(cc3c1C(O)N(C)CC3)OCO2 (stereo unspecified)
inactive: [13] 100 % of control | [14] 110 % of control

O=c1[nH]cnc2c1ncn2C1OC(CO)C(O)C1O.[Ag+] (stereo unspecified)
inactive: endpoint: mean survival time, dose: 12.5 mg/kg/injection, schedule: Q01DX005 (ip), vehicle: other 92 % of control | endpoint: mean survival time, dose: 25.0 mg/kg/injection, schedule: Q01DX005 (ip), vehicle: other 98 % of control | endpoint: mean survival time, dose: 50.0 mg/kg/injection, schedule: Q01DX005 (ip), vehicle: other 87 % of control

CN(C)CCC(O)C(O)CCN(C)C (stereo unspecified)
inactive: [6] 102 % of control | [7] 102 % of control | [8] 103 % of control

COc1ccc(C2=CCCCc3cc(O)c(OC)cc32)cc1
inactive: [15] 100 % of control | [10] 100 % of control | [11] 100 % of control

CN(C)Cc1cc(C(C)(C)CC(C)(C)C)cc(CN(C)C)c1O
inactive: endpoint: mean survival time, dose: 25.0 mg/kg/injection, schedule: Q04DX003 (ip), vehicle: saline with Tween-80 98 % of control | endpoint: mean survival time, dose: 50.0 mg/kg/injection, schedule: Q04DX003 (ip), vehicle: saline with Tween-80 100 % of control | [2] 96 % of control and 97 % of control

CC(C)(CCC(C)(C)c1ccccc1)c1ccccc1
inactive: [15] 96 % of control | [10] 96 % of control | [11] 96 % of control

O=C(C[n+]1cccc(C(=O)NCc2ccccc2)c1)Nc1ccccc1
inactive: [3] 96 % of control

NNC(=O)Nc1nn[nH]n1
inactive: [9] 97 % of control | endpoint: mean survival time, dose: 200.0 mg/kg/injection, schedule: Q04DX002 (ip), vehicle: saline with Tween-80 97 % of control | endpoint: mean survival time, dose: 400.0 mg/kg/injection, schedule: Q04DX002 (ip), vehicle: saline with Tween-80 94 % of control

C=C1C(=O)OC2CC(C)C3C(O)C(O)C(O)C3(C)CC12 (stereo unspecified)
inactive: [2] 102 % of control | [4] 104 % of control

Cc1cncn1Cc1ccccc1
inactive: endpoint: mean survival time, dose: 50.0 mg/kg/injection, schedule: Q01DX009 (ip), vehicle: Klucel (hydroxypropylcellulose) (HPC) 94 % of control | endpoint: mean survival time, dose: 100.0 mg/kg/injection, schedule: Q01DX009 (ip), vehicle: Klucel (hydroxypropylcellulose) (HPC) 108 % of control | endpoint: mean survival time, dose: 200.0 mg/kg/injection, schedule: Q01DX009 (ip), vehicle: Klucel (hydroxypropylcellulose) (HPC) 103 % of control
